Measured values reported in US9586994B2, “CD44V6-derived peptides for treating breast cancer” (KARLSRUHER INSTITUT FÜR TECHNOLOGIE, priority 2012, dated 2017).

Legend:
[1] = molecular target: T1, CD44v6 (Homo sapiens, UniProt P16070); assay: Peptide blocking of EGF/TGFα-induced Erk phosphorylation in MCF7 cells (Western blot); assay type: cell-based; details: peptide 100 ng/ml
T1 construct: endogenous in cells; host or cells: MCF7; MCF10A
Experimental: 3×10^5 were seeded per well of a 6-well plate and serum-starved for 24 hours. Afterwards the medium inside of each well was reduced to 1 ml and the respective peptide (v6 (both peptides of SEQ ID No.: 2 and 6 were tested), or ctrl peptide) was added at a concentration of 100 ng/ml. The cells then were incubated together with the peptide at 37° C. for 5 mins. Ligand concentration for all peptide blocking experiments was 20 ng/ml.
To assay protein expression via Western blot cells were washed 1× with PBS and afterwards lysed in 2×Laemmli sample buffer (160 mM Tris-HCl pH 6.8, 4% SDS, 16% glycerol, 0.1M DTT, 0.01% bromphenol blue). The sample was sheared through a 26 gauge needle. In succession the lysates were boiled for 5 mins at 99° C. in order to denature the proteins in the sample and then spun down at 10 000 rmp for 1 min Eventually the samples were loaded onto an SDS-PAGE gel.
To test whether CD44v6 acts as a co-receptor in MCF7 or MCF10A cells, a peptide blocking experiment using peptides of SEQ ID NO: 6 was conducted. The cells were serum-starved for 24 h and then pre-incubated with a v6 peptide or an unspecific control peptide. Then, the cells were induced with EGF or HGF as a control. As a read-out for ErbB-activation, the phosphorylation of the Erk-kinase was used.

[2] = test system: CD44v6; assay: HGF-induced activation of Met and ERK in L3.6pl cells (Western blot); assay type: cell-based, human; details: peptide before induction with 10 ng/ml HGF
Experimental: Serum-starved cells (24 hours) were induced with the growth factor HGF (10 ng/mL) at 37° C. for 5 minutes. Where indicated, the cells were treated with peptides (100 ng/ml) prior to induction at 37° C. for 10 minutes (100 ng/mL CD44v6 peptide or control peptide). Following the induction with HGF, cells were washed with ice-cold phosphate-buffered saline (PBS). To detect activated Met and ERK, cells were lysed in sodium dodecyl sulfate (SDS)—sample buffer containing 100 mM dithiothreitol (DTT), boiled and subjected to western blot analysis using antibodies against phospho-Met and ERK. The loading controls were performed on the same blot after stripping (62.5 mM Tris, pH 6.8, 2% SDS, 0.8% DTT) by probing with the Met respectively Erk antibody. Blots were stained using the enhanced chemiluminescence system (Thermo Fisher Scientific, Schwerte, Germany). Bands in western blot analysis were quantified with the program Image J (National Institutes of Health).
To expand the studies to human pancreatic tumors, the highly metastatic human pancreatic carcinoma cells L3.6pl (Bruns, et al. Neoplasia (1999), 1(1):50-62) were investigated. These cells originate from the […] cells that have been passaged several times in the liver and the pancreas, a step that rendered them more and more metastatic. It was confirmed that Met is dependent on CD44v6 for its activation and signaling in these cells (FIG. 19A). The L3.6pl cells were treated with HGF in the presence or absence of a human v6 peptide of SEQ ID NO: 2 or SEQ ID NO:6 and Met activation and downstream signaling to ERK was measured. Phosphorylation of both Met and ERK was inhibited by the human v6 peptide. Treatment with a corresponding rat v6 peptide (ctrl peptide, SEQ ID NO: 10 or 11) had no influence on receptor activation and signal transduction (FIG. 19A).
The contribution of CD44v6 to Met signaling in the human epithelial pancreatic cancer cells L3.6pl (derived from Colo 357), the cervix carcinoma cells HeLa and the colon cancer cells HT29 were analysed using the CD44v6 peptide (v6 14mer; v6 5mer tested as well, data not shown).

[3] = test system: L3.6pl cells; assay: Regression of already established metastases, L3.6pl orthotopic mouse model; assay type: in vivo; details: nude mice, orthotopic L3.6pl, treatment from week 3 for three weeks; human v6 peptide or rat control peptide 20 μg i.p.
Experimental: In order to examine the regression of metastases (either BSp73ASs6 or L3.6pl) were implanted as described above. Tumor growth was allowed for three weeks. At that time all animals had developed metastases in the control group. Animals were injected i.p. with 20 μg (L3.6pl orthotopic mouse model: human v6 peptide or rat control peptide) or i.v. with 200 μg (rat syngeneic model: rat v6 peptide or mouse control peptide) of peptides three times per week. Animals were killed 23 days after the start of the peptide treatment.
The specific binding of the CD44v6 peptides to specific areas of the lungs in the rat system and of the liver in the human model raises the question whether these peptides might have an effect on already established metastases. In the experiments described in FIGS. 17 and 19 the peptides were applied early after injection of the tumor cells and repressed completely the establishment of metastases. In order to measure the effect of the CD44v6 peptide on already established metastases, other experimental settings were used. BSp73ASs6 cells were injected subcutaneously into syngeneic rats and L3.6pl cells orthotopically into male nude mice and allowed to grow for 3 weeks. […]

[4] = test system: L3.6pl cells; assay: Human orthotopic pancreatic cancer model, L3.6pl cells in nude mice, treatment from day 7; assay type: in vivo, mouse
Experimental: In the case of the human orthotopic model, L3.6pl pancreatic carcinoma cells (passage 24-26) were suspended in Hank's balanced salt solution (Invitrogen, Karlsruhe, Germany) after trypsinization. The cells were injected orthotopically in the pancreas of male nude mice as described (Bruns C J et al. (1999) Neoplasia 1(1):50-62). Two groups of 15 mice each were injected i.p. 7 days later with either the human v6 peptide respectively rat control peptide (20 μg). For all experiments described and depicted herein either the rat 14mer control peptide or the human 14mer peptide were used. All experiments were then repeated with the rat 5mer control peptide or the human 5mer peptide (N-R-W-H-E, SEQ ID NO: 2). […] The injection was repeated three times per week for 21 days. Two days after the last treatment the animals were killed.
7 μm thick paraffin sections were deparaffinized and rehydrated. For P-Met staining antigen unmasking was achieved by boiling the slides in 1 mM EDTA pH 8.0 followed by incubation for 15 minutes at a sub-boiling temperature, for CD31 staining the sections were treated with Proteinase K (8 μg/ml) for […] at 37° C. For immunofluorescence staining of P-Met, unspecific binding was blocked with 5% goat serum (DAKO, Glostrup, Denmark) (diluted in 1×PBS/0.3% Triton X-100) for 60 minutes. In the case of immunohistochemistry, endogenous peroxidases were at first blocked with 3% H2O2 in PBS followed by incubation with biotin blocking system (Dako, Glostrup, Denmark) and then unspecific binding was inhibited by incubation with 5% FCS in PBS was used for blocking. The sections were incubated with the P-Met antibody (D26, dilution 1:50 in 1×PBS/1% BSA/0.3% Triton X-100), Met antibody (C-28, dilution 1:50), GFP antibody (sc-101525, dilution 1:50) or CD31 antibody (5 μg/ml) over night or VFF18 (5 μg/ml) o/n at 4° C. After washing in PBS the sections were incubated with Alexa Fluor R 546 goat anti-rabbit (in case of immunofluorescence P-Met and Met staining, dilution 1:500) or a biotinylated secondary antibody (for immunohistochemical stainings rabbit anti-rat antibody for VFF18 and CD31, goat anti-rabbit for P-Met, cleaved Caspase-3 and cleaved Caspase-8 and rabbit anti-mouse for GFP, dilution 1:500) for 45 minutes. For DAB staining the sections were treated with a streptavidin-peroxidase conjugate (Dako, Glostrup, Denmark) and developed with DAB (3,3′-diaminobenzidine) substrate system (3,3′-diaminobenzidine; Biozol, Eching, Germany) For immunofluorescence DAPI was used for nuclear staining.
To test the effect of the peptide on tumor growth and metastasis formation the L3.6pl cells were orthotopically injected into the pancreas of immunosuppressed mice (NCI-nu). […] The primary tumor expresses a high amount of CD44v6 (FIG. 19B). […] Indeed, human HGF in a concentration of 3375 pg/ml was detected in the supernatant (see Material and Methods) after 5 days of culture (data not shown).

T1 sequence (P16070 21-742): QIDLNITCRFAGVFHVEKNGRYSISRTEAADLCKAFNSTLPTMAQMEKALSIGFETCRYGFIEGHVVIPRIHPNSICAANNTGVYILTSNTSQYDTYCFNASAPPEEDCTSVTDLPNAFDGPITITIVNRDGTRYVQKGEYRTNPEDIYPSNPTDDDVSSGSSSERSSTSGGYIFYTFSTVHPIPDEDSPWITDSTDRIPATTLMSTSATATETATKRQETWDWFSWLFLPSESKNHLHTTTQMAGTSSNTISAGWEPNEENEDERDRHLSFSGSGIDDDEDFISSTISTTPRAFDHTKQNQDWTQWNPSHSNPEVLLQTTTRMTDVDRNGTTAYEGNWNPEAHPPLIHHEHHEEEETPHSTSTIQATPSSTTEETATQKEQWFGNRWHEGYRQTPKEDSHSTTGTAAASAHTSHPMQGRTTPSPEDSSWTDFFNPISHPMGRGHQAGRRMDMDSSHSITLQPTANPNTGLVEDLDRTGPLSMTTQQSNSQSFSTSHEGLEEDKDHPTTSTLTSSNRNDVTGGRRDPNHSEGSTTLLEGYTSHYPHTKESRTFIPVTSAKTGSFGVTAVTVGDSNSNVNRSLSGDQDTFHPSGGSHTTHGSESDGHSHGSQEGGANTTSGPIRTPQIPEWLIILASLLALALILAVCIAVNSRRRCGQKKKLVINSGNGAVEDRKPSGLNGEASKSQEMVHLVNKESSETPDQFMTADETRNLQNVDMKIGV

EGF-induced activation of the ErbB receptors (Erk phosphorylation) ([1]; MCF7, serum-starved, EGF 20 ng/ml): blocking of Erk phosphorylation | Erk phosphorylation upon TGFα induction ([1]; MCF7, TGFα 20 ng/ml): not upon TGFα induction
Substance: NRWHE [SEQ ID NO: 2, human CD44v6 5mer peptide]
HGF-induced phosphorylation/activation of ERK [2]: inhibited | HGF-induced phosphorylation/activation of Met [2]: inhibited | Presence of metastases (liver) after treatment of established metastases [3]: eliminate already established metastases | Outcome of all experiments repeated with 5mer peptides, compared with 14mer ([4]; L3.6pl orthotopic model, 5mer instead of 14mer): same results as for the 14mer peptides | Metastasis formation (liver) ([4]; nude mice, orthotopic L3.6pl, 20 μg i.p. three times per week): capable of inhibiting metastasis
